This assay has as its target T1, 5-HT2A receptor (Homo sapiens, UniProt P28223).
T1 construct: expressed in transfected cells; host or cells: NIH3T3 cells, pSI expression vector
Briefly: R-SAT functional receptor assay. It counts as cell-based. To be noted: for Emax: 120 h. Here is the method: The functional receptor assay, Receptor Selection and Amplification Technology (R-SAT), was used (with minor modifications from that previously described U.S. Pat. No. 5,707,798) to screen compounds for efficacy at the 5-HT2A receptor. Briefly, NIH3T3 cells were grown in 96 well tissue culture plates to 70-80% confluence. Cells were transfected for 12-16 hours with plasmid DNAs using superfect (Qiagen Inc.) as per manufacture's protocols. R-SAT's were generally performed with 50 ng/well of receptor and 20 ng/well of Beta-galactosidase plasmid DNA. All receptor and G-protein constructs used were in the pSI mammalian expression vector (Promega Inc) as described in U.S. Pat. No. 5,707,798. The 5HT2A receptor gene was amplified by nested PCR from brain cDNA using the oligodeoxynucleotides based on the published sequence (see Saltzman et. al. Biochem. Biophys. Res. Comm. 181:1469-78 (1991)). Large-scale transfections, cells were transfected for 12-16 hours, then trypsinized and frozen in DMSO. Frozen cells were later thawed, plated at 10,000-40,000 cells per well of a 96 well plate that contained drug. With both methods, cells were then grown in a humidified atmosphere with 5% ambient CO2 for five days. Media was then removed from the plates and marker gene activity was measured by the addition of the beta-galactosidase substrate ONPG (in PBS with 5% NP-40). The resulting colorimetric reaction was measured in a spectrophotometric plate reader (Titertek Inc.)at […]. All data were analyzed using the computer program XLFit (IDBSm). Efficacy is the percent maximal repression compared to repression by a control compound (ritanserin in the case of 5HT2A). pIC50 is the negative of the log(IC50), where IC50 is the calculated concentration in Molar that produces 50% maximal repression.
Briefly, the 5-HT2A receptor, and the alpha subunit of the guanine nucleotide binding protein Gq were transiently transfected into NIH3T3 cells and assayed using the functional receptor assay, Receptor Selection and Amplification Technology (R-SAT) essentially as disclosed in U.S. Pat. No. 5,707,798. Each compound was screened at seven serially diluted concentrations in triplicate. Data were analyzed using least squares fit analysis with GraphPad Prism (San Diego, Calif.), and are reported normalized to percent response.
R-SAT assays (as described in Example 42) were carried out with cells transfected with receptors (listed below) to determine the receptor selectivity profile for compound 26HCH16D. 5HT2A inverse agonist data (IC50 nM; % efficacy) were derived from detailed dose response curves (7 points in triplicate).
The functional receptor assay, Receptor Selection and Amplification Technology (R-SAT), was used (with minor modifications from that previously described U.S. Pat. No. 5,707,798) to screen compounds for efficacy at the 5-HT2A receptor. The RSAT assay was conducted as described herein.
The functional receptor assay, Receptor Selection and Amplification Technology (R-SAT), was used (with minor modifications from that previously described U.S. Pat. No. 5,707,798, which is incorporated herein by reference in its entirety) to screen compounds for efficacy at the 5-HT2A receptor. The RSAT assay was conducted as described herein.

Setting [1] is: compared to ritanserin, read-out: 5HT2A % inhibition.
[2] abbreviates: pIC50 (average), inverse agonist.
Setting [3] is: percent maximal repression compared to ritanserin.
Setting [4] is: read-out: Percent Efficacy, compared to ritanserin.
The mark [5] stands for this setting: Table 3, read-out: pIC50 (converted).
Where [6] appears, read: inverse agonist, read-out: pIC50 (average) (converted).
Where [7] appears, read: Table 6, read-out: 5HT2A pIC50 (converted).

Structures can show the parent of a compound that is named as a salt. Where two headings read alike, the source gives them in different places.

T1 sequence (P28223 whole entry): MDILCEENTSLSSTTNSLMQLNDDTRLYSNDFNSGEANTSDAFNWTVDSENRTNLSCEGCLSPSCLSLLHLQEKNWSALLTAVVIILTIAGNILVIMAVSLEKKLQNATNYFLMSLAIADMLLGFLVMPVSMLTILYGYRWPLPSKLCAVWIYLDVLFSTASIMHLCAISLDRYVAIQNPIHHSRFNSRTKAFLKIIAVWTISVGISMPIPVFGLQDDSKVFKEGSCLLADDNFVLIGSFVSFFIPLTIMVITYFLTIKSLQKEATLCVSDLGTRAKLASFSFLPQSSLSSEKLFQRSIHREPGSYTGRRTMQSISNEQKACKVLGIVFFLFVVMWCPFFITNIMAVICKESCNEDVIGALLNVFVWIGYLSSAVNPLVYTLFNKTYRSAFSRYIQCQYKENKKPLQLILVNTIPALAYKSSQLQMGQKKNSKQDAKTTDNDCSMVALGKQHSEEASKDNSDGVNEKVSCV

As to `CC(C)COc1ccc(CN2C(=O)OC3(CCN(C)CC3)[C@@H]2Cc2ccc(F)cc2)cc1` (single isomer, unassigned) [Example 78NLS59, 4-(4-fluorobenzyl)-3-(4-isobutoxybenzyl)-8-methyl-1-oxa-3,8-diaza-spiro[4.5]decan-2-one, hydrochloride], where the note is “read-out: 5HT2A % inhibition, compared to ritanserin”, the Emax turned out to be 98%. The “enantiomer activity at the 5-HT2A receptor” value (in words) was “eutomer”.

With `CC(C)COc1ccc(CN2C(=O)OC3(CCN(C)CC3)C2Cc2ccc(F)cc2)cc1` (single isomer, unassigned) [Example 78NLS62, 4-(4-fluorobenzyl)-3-(4-isobutoxybenzyl)-8-methyl-1-oxa-3,8-diaza-spiro[4.5]decan-2-one, hydrochloride], the Emax under setting [1] amounted to 89%.

With `COc1ccc(CC(=O)N(Cc2ccc(C)cc2)C2CCN(CC3CCCCC3)CC2)cc1` [Example 6HCH79-6, N-(1-(Cyclohexylmethyl)piperidin-4-yl)-N-((4-methylphenyl)methyl)-4-methoxy phenylacetamide], the “Percent Efficacy” value is listed as 83%.

Regarding `COc1ccc(CC(=O)N(Cc2ccc(C)cc2)C2CCN(Cc3ccccc3)CC2)cc1` [Example 26HCH17, N-((4-Methylphenyl)methyl)-N-(1-(phenylmethyl)piperidin-4-yl)-4-methoxyphenylacetamide hydrochloride], the Emax (read-out: Percent Efficacy) worked out at 94%. Where the note is “pIC50, Table 3”, this compound had an IC50 of 5.01 nM.

On to `COc1ccc(CC(=O)N(Cc2ccc(C)cc2)C2CCN(Cc3ccccc3)C2)cc1` (stereo not shown) [Example 26HCH52, N-((4-Methylphenyl)methyl)-N-(1-(phenylmethyl)pyrrolidin-3-yl)-4-methoxyphenylacetamide], for which, under setting [2], the IC50 was 49 nM. Moreover, under setting [3], the “Efficacy (average)” value was 98.

Turning to `Cc1ccc(CN(C(=O)NCc2ccccc2)C2CCNCC2)cc1` [Example 26HCH65, N-((4-Methylphenyl)methyl)-N-(piperidin-4-yl)-N′-phenylmethylcarbamide], under setting [4], the Emax is 103%. Further, the IC50 under setting [5] is 6.31 nM.

Compound `Cc1ccc(CN(C(=O)NCc2ccccc2)C2CCN(Cc3ccccc3Br)CC2)cc1` [Example 26HCH66-03, N-(1-((2-Bromophenyl)methyl)piperidin-4-yl)-N-((4-methylphenyl)methyl)-N′-phenylmethylcarbamide] showed an IC50 under setting [2] of 38 nM. Besides, under setting [3], the “Efficacy (average)” value is listed as 76.

Consider `CCc1ccc(CN2CCC(N(Cc3ccc(C)cc3)C(=O)NCc3ccccc3)CC2)s1` [Example 26HCH66-05, N-(1-((5-Ethylthien-2-yl)methyl)piperidin-4-yl)-N-((4-methylphenyl)methyl)-N′-phenylmethylcarbamide], for which, under “read-out: Percent Efficacy”, the Emax came to 126%. In addition, the IC50 under setting [2] was 28.2 nM and the IC50 (pIC50, Table 3) is 7.94 nM. Besides, under setting [3], the “Efficacy (average)” value is on record as 109.

Turning to `COc1ccc(CC(=O)N(Cc2ccc(C)cc2)C2CCNCC2)cc1` [Example 26HCH71B, N-((4-Methylphenyl)methyl)-N-(piperidin-4-yl)-4-methoxyphenylacetamide], under setting [4], the Emax is 124%. Moreover, the IC50 under setting [5] was 12.6 nM.

`COc1ccc(CC(=O)N(Cc2ccc(C)cc2)C2CCN(CCC(C)(C)C)CC2)cc1` [Example 26HCH79-5, N-(1-(3,3-Dimethylbutyl)piperidin-4-yl)-N-((4-methylphenyl)methyl)-4-methoxyphenylacetamide]: the Emax under setting [4] was 94%. Under setting [5], the IC50 is 6.31 nM.

Take `COc1ccc(CC(=O)N(Cc2ccc(C)cc2)C2CCN(Cc3ccccc3O)CC2)cc1` [Example 26HCH79-10, N-(1-((2-Hydroxyphenyl)methyl)piperidin-4-yl)-N-((4-methylphenyl)methyl)-4-methoxyphenylacetamide]: the Emax (read-out: Percent Efficacy) worked out at 102%. Besides, the IC50 (pIC50, Table 3) is 15.8 nM.

With `COc1ccc(CC(=O)N(Cc2ccc(F)cc2)C2CCNCC2)cc1` [Example 26HCH80-7, N-((4-Fluorophenyl)methyl)-N-(piperidin-4-yl)-4-methoxyphenylacetamide], the “Efficacy (average)” value stood at 87. For the same compound, the IC50 under setting [6] was 20 nM.

As for `COc1ccc(CC(=O)N(Cc2cccc(Br)c2)C2CCNCC2)cc1` [Example 26HCH80-10, N-((3-Bromophenyl)methyl)-N-(piperidin-4-yl)-4-methoxyphenylacetamide], the “Efficacy (average)” value came out at 91. Also, the IC50 under setting [6] was 61.7 nM.

For `CC(C)COc1ccc(CN2C(=O)OC3(CCN(CC4CC4)CC3)C2Cc2ccc(F)cc2)cc1` (stereo not shown) [Example 38-PH16-HCl, 8-Cyclopropylmethyl-4-(4-fluorobenzyl)-3-(4-isobutoxybenzyl)-1-oxa-3,8-diaza-spiro[4.5]decan-2-one, hydrochloride], the Emax under setting [1] is 95%. Moreover, the IC50 under setting [7] was 7.94 nM.

Consider `CC(C)COc1ccc(CN2C(=O)OC3(CCN(CCN4CCNC4=O)CC3)C2Cc2ccc(F)cc2)cc1` (stereo not shown) [Example 38-PH17-HCl, 4-(4-Fluorobenzyl)-3-(4-isobutoxybenzyl)-8-[2-(2-oxo-imidazolidin-1-yl)-ethyl]-1-oxa-3,8-diaza-spiro[4.5]decan-2-one, hydrochloride], for which the Emax under setting [1] is 84%. Under setting [7], the IC50 was 1.58 nM.

As for `CCN1CCC2(CC1)OC(=O)N(Cc1ccc(OCC(C)C)cc1)C2Cc1ccc(F)cc1` (stereo not shown) [Example 38-PH20, 4-(4-Fluorobenzyl)-3-(4-isobutoxybenzyl)-8-ethyl-1-oxa-3,8-diaza-spiro[4.5]decan-2-one, hydrochloride], under setting [1], the Emax turned out to be 100%. The IC50 under setting [7] was 0.501 nM.

As to `COc1ccc(CC(=O)N(Cc2ccc(C)cc2)C2CCN(CC3CCCCC3)CC2)cc1` [Example 42ELH45, 2-(4-Methoxyphenyl)-N-(4-methylbenzyl)-N-(1-cyclohexylmethylpiperidin-4-yl)acetamide], the “Percent Efficacy” value is 108%.

In the case of `COc1ccc(CC(=O)N(Cc2ccc(C)cc2)C2CCN(C3CCCC3)CC2)cc1` [Example 42ELH75, 2-(4-Methoxyphenyl)-N-(4-methylbenzyl)-N-(1-cyclopentylpiperidin-4-yl)acetamide], the Emax under setting [4] worked out at 109%. Also, under setting [5], the IC50 was 5.01 nM.

With `COc1ccc(CC(=O)N(Cc2ccc(C)cc2)C2CCN(C(C)C)CC2)cc1` [Example 42ELH79, 2-(4-Methoxyphenyl)-N-(4-methylbenzyl)-N-(1-isopropylpiperidin-4-yl)acetamide], the Emax under setting [4] is 110%. Besides, under setting [5], the IC50 is 3.16 nM.

In the case of `CCN1CCC(N(Cc2ccc(C)cc2)C(=O)Cc2ccc(OC)cc2)CC1` [Example 42ELH80, 2-(4-Methoxyphenyl)-N-(4-methylbenzyl)-N-(1-ethylpiperidin-4-yl)acetamide], the Emax under setting [4] turned out to be 122%. Also, the IC50 under setting [5] is 3.16 nM.

With `CCN1CCC(N(Cc2ccc(Cl)cc2)C(=O)Cc2ccc(OC)cc2)CC1` [Example 42ELH85, 2-(4-Methoxyphenyl)-N-(4-chlorbenzyl)-N-(1-ethylpiperidin-4-yl)acetamide], the “Percent Efficacy” value (compared to ritanserin) stood at 118%.

`COc1ccc(CC(=O)N(Cc2ccc(Cl)cc2)C2CCN(C3CCCC3)CC2)cc1` [Example 42ELH91, 2-(4-Methoxyphenyl)-N-(4-chlorbenzyl)-N-(1-cyclopentylpiperidin-4-yl)acetamide]: under “compared to ritanserin”, the “Percent Efficacy” value is given as 108%.

On to `Cc1ccc(CN(C(=O)Cc2ccc(Cl)cc2)C2CCN(C(C)C)CC2)cc1` [Example 47AKU-7, 2-(4-Chlorophenyl)-N-(4-methylbenzyl)-N-(1-isopropylpiperidin-4-yl)-acetamide], for which the Emax under setting [4] came to 120%. Also, the IC50 under setting [5] was 7.94 nM.

The record behind these values is US20080051429A1, “USE OF 4-AMINO-PIPERIDINES FOR TREATING SLEEP DISORDERS” (priority 2006, published 2008).
